Reference: patent publication US6913695B2, “Sanitization of chromatographic media” (Bayer HealthCare LLC, priority 2003, dated 2005)
Where a name gives a salt, the structure may show the parent alone.

How the values were obtained:
[1] = test system: porcine parvovirus; PPV; assay: Porcine parvovirus clearance and sanitization across the benzamidine-SEPHAROSE column (TCID50 titration on MPK cells); type: cell-based
[2] = test system: PrP^Sc; conditions: pH 3
[3] = test system: bovine viral diarrhea virus (BVDV); assay: Column sanitization after viral clearance run, BVDV; type: cell-based; conditions: column treated with 7.2 M guanidine hydrochloride, pH 3.0, after a viral clearance run
Procedure: Solutions tested included a variety of alcohols, detergents, and chaotropic agents including guanidine hydrochloride (Table 2). […] A series of experiments were performed to identify conditions under which 8 M guanidine hydrochloride would stay in solution. […] Additionally, when mixed with virus (1 part virus:9 parts acidic guanidine hydrochloride; final guanidine hydrochloride concentration=7.2 M) inactivation to the limit of detection occurred within 30 minutes at 4° C. Similar experiments were carried out treating the benzamidine-SEPHAROSE column with 7.2 M guanidine hydrochloride, pH 3.0, following a viral clearance evaluation run.

[4] = test system: porcine parvovirus (PPV); assay: Inactivation of PPV in solution by test solutions (TCID50 titration); type: cell-based

## N=C(N)N [guanidine hydrochloride]
[1]; 7.2 M guanidine hydrochloride, pH 3.0
  inactivation of chromatographic column-associated virus (benzamidine-SEPHAROSE resin): can be inactivated
[1]; PPV, column treated with 7.2 M guanidine hydrochloride, pH 3.0, after a viral clearance run
  virus inactivation on the benzamidine-SEPHAROSE column: inactivation to the limit of assay detection
[2]
  decrease in PrP^RES immunoreactivity, as compared to the non-treated control: ≥ 2.5 log
[3]
  virus inactivation on the benzamidine-SEPHAROSE column: inactivation to the limit of assay detection
[4]; 1 part virus:9 parts acidic guanidine hydrochloride, final concentration 7.2 M, 4° C.
  time to inactivation to the limit of detection: ≤ 30 min
[4]; 4 M guanidine hydrochloride, pH 3.0
  inactivation of virus in solution: effective viral inactivation
[4]; 6.5 M guanidine hydrochloride, pH 4.0, 4° C.
  inactivation of virus in solution: inactivation of virus
[4]; 8 M guanidine hydrochloride, room temperature, initial screen
  killing of virus (PPV): effective at killing virus to the detection limit of the assay
8 M guanidine acidified to pH 4.0 or 3.0, 4° C.
  precipitation: did not precipitate
8 M guanidine, not acidified, 4° C.
  precipitation at the lower temperature: precipitation occurred
